How the values were obtained:
Type in all cases: in vivo
[1] = test system: contusion injury to the spinal cord; assay: Lesion volume 3 days after spinal cord contusion injury; conditions: rats with spinal cord contusion, sacrificed 3 days after injury
Protocol: FIG. 7 is a graph showing the unexpected ability of 4-AP to modulate outcomes of traumatic injury that are of relevance to the injury in all tissues of the body is the ability to decrease lesion size. In these experiments, rats received identical injuries as discussed in Example 1, except that these rats were sacrificed 3 days after injury. Lesion size, in cubic millimeters (mm^3) was calculated by imaging collected tissue sections covering the full dimensions of the injury using Stereolnvestigator and contours were traced to cover the region of the tissue in which damage was apparent. All slides were measured by a blinded individual. Lesion volume was thus determined. […]
Still another example of the unexpected ability of 4-AP to modulate outcomes of traumatic injury that are of relevance to such injury in all tissues of the body is the ability to decrease lesion size. […] Lesion size, in cubic millimeters (mm^3) was calculated by imaging collected tissue sections covering the full dimensions of the injury using Stereolnvestigator and contours were traced to cover the region of the tissue in which damage was apparent. All slides were measured by a blinded individual. Lesion volume was thus determined.

skeletal muscle atrophy = assay: Skeletal muscle atrophy after complete denervation (nerve transection)
Protocol: Treatment with 4AP decreased muscle expression of MuRF-1 (FIG. 11A) and myogenin (FIG. 11B) (both normalized to GADPH) after complete denervation. […] Thus, the beneficial effects of 4AP on parameters of atrophy were not dependent on restoration of normal motor usage. *=p<0.05; ** p<0.01.
In this example, the nerve innovating the extensor digitorum longus muscle was completely transected 15-25 mm distant from the muscle. 4-AP was then administered during the acute and subacute post-injury periods.

[2] = test system: traumatic damage to the peripheral nervous system; assay: Recovery of function after traumatic damage to the peripheral nervous system; conditions: following traumatic damage to the peripheral nervous system
P-zero myelin protein = assay: P0 myelin protein in tissue lysates after sciatic nerve crush; conditions: mice, tissue lysates at 21 days post-injury/treatment
[3] = test system: glial fibrillary acidic protein (GFAP); assay: GFAP labeling (scarring marker) in spinal cord sections after contusion injury; conditions: rats with spinal cord contusion, compared with saline
From the text: FIG. 6A and FIG. 6B are images illustrating a section of spinal cords of placebo (saline) (FIG. 6A) and 4-AP (FIG. 6B) treated animals labeled with antibody against glial fibrillary acidic protein (GFAP), which is a marker of scarring in all regions of the central nervous system, (bright spots in FIG. 6A) and DAPI (bright spots in FIG. 6B). indicates the lesion edge. The size bar represents 100 μm. […] These outcomes provide further evidence that 4-AP administration is regulating a response to traumatic injury that is of relevance to traumatic injury in all tissues.
FIGS. 6A-6B further examines expression of a protein called glial fibrillary acidic protein (GFAP), which is one of the markers of scarring in all regions of the central nervous system. […] These outcomes provide further evidence that 4-AP administration is regulating a response to traumatic injury that is of relevance to traumatic injury in all tissues.

sciatic nerve crush = assay: Electron microscopy of sciatic nerve after crush injury with local 4-AP PLGA films
From the text: A comparison of the axonal area of randomly chosen individual axons of vehicle treated and 4-AP treated mice (n=4 for each experimental group; 40 axons analyzed per mouse) is shown. […] (**: p<0.01; ANOVA).
In the experiment below, mice received crush injuries to the sciatic nerve and then a sustained release formulation of 4-AP in a PLGA formulation (4-AP films) was applied locally at the site of injury. At the time that nerve conduction velocity began to recover, nerves were isolated and studied by electron microscopy. […] In uninjured myelinated axons, the average area of a myelinated axon (excluding the myelin) was 11.2+/−1.3 μm^2. In injured nerves treated with PLGA film only, the average area of myelinated axons decreased to 5.7+/−0.2 μm^2 (FIG. 9A). In nerves treated with 4-AP-containing films, the average area of myelinated axons was 6.7+/−0.4 μm^2 (p<0.05 versus mice treated only with film). In addition, the proportion of axons with areas above the average value for uninjured nerves was 5+/−3% in injured nerves treated with vehicle alone but increased to 15+/−2% in nerves treated with 4-AP containing films (p<0.05).
On day 21 after injury, the average thickness of the myelin within the injured area was 0.53+/−0.03 μm but was 0.95+/−0.14 μm with localized 4-AP administration (p<0.01), as compared with an average myelin thickness in uninjured nerves of 1.26+/−0.08 μm. […] The myelin area was also measured (FIG. 9C, D) and it was determined that the average cross-sectional area of myelin per myelinated large axon in uninjured nerve was 14.8+/−1.7 μm^2, 4.9+/−0.3 μm^2 in injured nerve, and was restored to 10.1+/−0.7 μm^2 with localized 4-AP administration (p<0.01). In 4-AP treated mice, 21.2+/−9.3% of axons had myelin areas that were above the average for uninjured nerve, while this value in vehicle-treated mice was only 1.9+/−1.4%.
The benefits of treatment were also observed by analysis of the ratio of the area of the axon to the area of the axon plus associated myelin. This g^area ratio, a variant of the usually employed g-ratio, was calculated due to the decreased circularity in injured nerve. […] However, with local 4-AP treatment, the g^area-ratio was in the normal range of 0.43+/−0.09 (p<0.01) (FIG. 9D).
The number of total myelinated axons per TEM grid examined (2310 μm^2) was 82+/−5 axons in undamaged nerve, as compared with 55+/−4 axons in injured vehicle-treated mice and 71+/−4 axons in 4-AP treated mice (p<0.01 for vehicle-treated vs. 4-AP treated mice).

[4] = after complete denervation, daily 4-AP
[5] = mice, localized 4-AP (PLGA films)

## Nc1ccncc1 [4-AP, 4-aminopyridine]
[1]
  lesion size (lesion volume): greatly decreasing lesion size
Skeletal muscle atrophy; [4]
  muscle expression of MuRF-1 (normalized to GADPH): decreased
  muscle expression of myogenin (normalized to GADPH): decreased
Skeletal muscle atrophy; denervated animals
  recovery of gait function: did not show any recovery of gait function
[2]
  recovery of motor function and electrophysiological function: more rapid recovery of motor function and electrophysiological function
P-zero myelin protein
  more P0 protein in the lesion area than in nerves of vehicle-treated animals: 61+/−15%
[3]
  GFAP, marker of central nervous system scarring: greatly decreased
Sciatic nerve crush; 21 days after injury
  myelinated axons with a g^area-ratio less than the average for uninjured mice: 54.4+/−18.5%
Sciatic nerve crush; mice, 21 days after injury, local 4-AP treatment
  average g^area-ratio (area of the axon to area of the axon plus associated myelin): 0.43+/−0.09
Sciatic nerve crush; mice, 21 days post injury
  number of total myelinated axons per TEM grid examined (2310 μm^2): 71+/−4 axons
Sciatic nerve crush; mice, day 21, localized 4-AP (PLGA films)
  axons with myelin thickness above the average for uninjured nerve: 21.4+/−10.8%
Sciatic nerve crush; mice, day 21 after injury, localized 4-AP (PLGA films)
  average thickness of the myelin within the injured area: 0.95+/−0.14 μm
Sciatic nerve crush; [5]
  average cross-sectional area of myelin per myelinated large axon: 10.1+/−0.7 μm^2
  axons with myelin areas above the average for uninjured nerve: 21.2+/−9.3%

Reference: US20180271847A1, “TREATMENT OF ACUTE TRAUMATIC INJURY” (priority 2015, published 2018)
